Patent US9957271B2, “Substituted bicyclic aza-heterocycles and analogues as sirtuin modulators” (GlaxoSmithKline, LLC, priority 2012, dated 2018)

Key:
[1] = target: T1, SIRT1 (Homo sapiens, UniProt Q96EB6); test: TAMRA based mass spectrometry assay of SIRT1 activity; format: biochemical; settings: for Emax: read-out: TAMRA % Fold Act
T1 sequence (Q96EB6 1-747): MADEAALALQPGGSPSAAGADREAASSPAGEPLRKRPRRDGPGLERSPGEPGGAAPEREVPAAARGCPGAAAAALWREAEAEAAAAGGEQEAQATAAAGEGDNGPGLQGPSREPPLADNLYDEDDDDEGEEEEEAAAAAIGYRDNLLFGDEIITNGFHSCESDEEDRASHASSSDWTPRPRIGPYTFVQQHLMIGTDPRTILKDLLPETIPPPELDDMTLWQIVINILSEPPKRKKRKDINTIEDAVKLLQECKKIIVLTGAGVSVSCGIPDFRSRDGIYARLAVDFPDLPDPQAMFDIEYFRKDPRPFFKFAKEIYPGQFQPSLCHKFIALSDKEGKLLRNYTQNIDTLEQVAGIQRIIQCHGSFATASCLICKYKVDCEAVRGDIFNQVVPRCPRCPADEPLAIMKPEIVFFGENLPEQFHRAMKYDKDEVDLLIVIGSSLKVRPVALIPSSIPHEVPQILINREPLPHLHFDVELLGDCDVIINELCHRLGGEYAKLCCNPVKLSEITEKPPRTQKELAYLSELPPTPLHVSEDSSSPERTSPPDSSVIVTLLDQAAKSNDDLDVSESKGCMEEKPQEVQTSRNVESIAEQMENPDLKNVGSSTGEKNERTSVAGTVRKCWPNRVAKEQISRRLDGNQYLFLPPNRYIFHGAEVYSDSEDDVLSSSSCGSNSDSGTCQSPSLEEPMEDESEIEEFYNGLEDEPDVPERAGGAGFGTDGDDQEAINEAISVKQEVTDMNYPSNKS
Outline: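 Deacetylation of a biotinylated, TAMRA-tagged p53-based peptide (0.5 μM) by 10 nM His-tagged SIRT1 with 120 μM βNAD+, 25 °C for 25 min, pH 8 Tris-acetate buffer, across a compound concentration range. Quenched by formic acid and read by mass spec as product peptide or OAADPR; activity relative to DMSO reactions, nicotinamide defining maximal inhibition.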

[2] = target: T1, SIRT1; test: Trp mass spectrometry assay of SIRT1 activity; format: biochemical; settings: for Emax: read-out: Trp % Fold Act
Outline: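 Activation readout: EC1.5 (concentration raising activity 50% over control) and percent maximum activation, from mass-spec quantitation of OAADPR or deacetylated Trp peptide. Reaction: 0.5 μM acetylated Trp peptide, 120 μM βNAD+, 10 nM bacterially expressed N-His SIRT1, pH 7.5 HEPES buffer with […], 25 min at 25° C.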

[3] = TAMRA assay, concentration giving 150% activation of SIRT1
[4] = TAMRA assay, percent maximum fold activation
[5] = Trp assay, concentration giving 150% activation of SIRT1
[6] = Trp assay, percent maximum fold activation
[7] = TAMRA peptide substrate, concentration giving 150% activation of SIRT1
[8] = TAMRA peptide substrate, percent maximum fold activation
[9] = Trp peptide substrate, concentration giving 150% activation of SIRT1
[10] = Trp peptide substrate, percent maximum fold activation
[11] = concentration of test compound giving 150% activation of SIRT1, TAMRA peptide substrate
[12] = percent maximum fold activation of SIRT1, TAMRA peptide substrate
[13] = concentration of test compound giving 150% activation of SIRT1, Trp peptide substrate
[14] = percent maximum fold activation of SIRT1, Trp peptide substrate

Row | TAMRA EC1.5 (μM) [1, 3] | Emax [1, 4] | Trp EC1.5 (μM) [2, 5] | Emax [2, 6] | other results | Compound
1 | B (EC1.5 1-25 μM) | < 350% | B (EC1.5 1-25 μM) | < 350% | – | Cc1cc(OCC(O)CO)nc(NC(=O)c2cnc3ccc(-c4ccccc4Cl)nn23)n1 (stereo not drawn) [Compound 285]
2 | – | – | – | – | TAMRA EC1.5 [1, 7]: B (EC1.5 1-25 μM); Emax [1, 8]: ≥ 350%; Trp EC1.5 [2, 9]: B (EC1.5 1-25 μM); Emax [2, 10]: < 350% | O=C(Nc1ccncc1F)c1cnn2ccc(-c3ccccc3C(F)(F)F)nc12 [Compound 517]
3 | – | – | – | – | TAMRA EC1.5 (μM) [1, 11]: A (EC1.5<1 μM); Emax [1, 12]: ≥ 350%; Trp EC1.5 (μM) [2, 13]: B (EC1.5 1-25 μM); Emax [2, 14]: < 350% | O=C(Nc1cccc(CN2CCOCC2)n1)c1cnc2ccc(-c3ccccc3C(F)F)nn12 [Compound 34]
4 | A (EC1.5<1 μM) | ≥ 350% | C (EC1.5>25 μM) | < 350% | – | Cc1cnc(C(=O)Nc2cnn3ccc(-c4ccccc4OC(F)(F)F)nc23)s1 [Compound 782]
5 | A (EC1.5<1 μM) | ≥ 350% | B (EC1.5 1-25 μM) | < 350% | – | Cc1nccc(C(=O)Nc2cnn3ccc(-c4ccccc4C(F)(F)F)nc23)n1 [Compound 794]
6 | A (EC1.5<1 μM) | ≥ 350% | B (EC1.5 1-25 μM) | ≥ 350% | – | Cc1cc(C)nc(NC(=O)c2cnn3ccc(-c4ccccc4C(F)(F)F)nc23)n1 [Compound 806]
7 | A (EC1.5<1 μM) | ≥ 350% | A (EC1.5<1 μM) | ≥ 350% | – | O=C(Nc1ccnc(O)c1)c1cnn2ccc(-c3ccccc3OC(F)(F)F)nc12 [Compound 779]
8 | A (EC1.5<1 μM) | ≥ 350% | B (EC1.5 1-25 μM) | < 350% | – | COCCOc1cc(NC(=O)c2cnc3ccc(-c4ccccc4C(F)(F)F)nn23)ncn1 [Compound 663]
9 | – | – | – | – | TAMRA EC1.5 (μM) [1, 11]: A (EC1.5<1 μM); Emax [1, 12]: ≥ 350%; Trp EC1.5 (μM) [2, 13]: B (EC1.5 1-25 μM); Emax [2, 14]: < 350% | O=C(Nc1nc(CN2CCOCC2)cs1)c1cnc2ccc(-c3ccccc3C(F)(F)F)nn12 [Compound 20]
10 | B (EC1.5 1-25 μM) | ≥ 350% | B (EC1.5 1-25 μM) | < 350% | – | O=C(Nc1ccc(OCC(O)CO)nc1)c1cnc2ccc(-c3ccccc3C(F)(F)F)nn12 (stereo not drawn) [Compound 263]
11 | – | – | – | – | TAMRA EC1.5 (μM) [1, 11]: A (EC1.5<1 μM); Emax [1, 12]: ≥ 350%; Trp EC1.5 (μM) [2, 13]: B (EC1.5 1-25 μM); Emax [2, 14]: ≥ 350% | COc1nccc(NC(=O)c2cnc3ccc(-c4ccccc4C(F)(F)F)nn23)n1 [Compound 173]
12 | – | – | – | – | TAMRA EC1.5 [1, 7]: A (EC1.5<1 μM); Emax [1, 8]: ≥ 350%; Trp EC1.5 [2, 9]: A (EC1.5<1 μM); Emax [2, 10]: ≥ 350% | O=C(Nc1cncc(OC[C@H](O)CO)n1)c1cnc2ccc(-c3ccccc3C(F)(F)F)nn12 [Compound 555]
13 | A (EC1.5<1 μM) | ≥ 350% | B (EC1.5 1-25 μM) | < 350% | – | O=C(Nc1cnn2ccc(-c3ccccc3C(F)(F)F)nc12)c1ncc(F)cc1F [Compound 749]
14 | – | – | – | – | TAMRA EC1.5 (μM) [1, 11]: B (EC1.5 1-25 μM); Emax [1, 12]: < 350%; Trp EC1.5 (μM) [2, 13]: B (EC1.5 1-25 μM); Emax [2, 14]: < 350% | O=C(Nc1nc(CN2CCOCC2)cs1)c1cnc2ccc(-c3ccc(F)c(F)c3)nn12 [Compound 44]
15 | A (EC1.5<1 μM) | ≥ 350% | A (EC1.5<1 μM) | < 350% | – | COc1cc(NC(=O)c2c(C)nn3ccc(-c4ccccc4C(F)(F)F)nc23)ncn1 [Compound 778]
16 | – | – | – | – | TAMRA EC1.5 [1, 7]: C (EC1.5>25 μM); Emax [1, 8]: < 350%; Trp EC1.5 [2, 9]: C (EC1.5>25 μM); Emax [2, 10]: < 350% | Cc1nn2ccc(-c3ccccc3C(F)(F)F)nc2c1NC(=O)c1cccnc1 [Compound 568]
17 | – | – | – | – | TAMRA EC1.5 [1, 7]: A (EC1.5<1 μM); Emax [1, 8]: ≥ 350%; Trp EC1.5 [2, 9]: A (EC1.5<1 μM); Emax [2, 10]: ≥ 350% | Cc1nc2c(C)cc(-c3ccccc3C(F)(F)F)nn2c1C(=O)Nc1cnccn1 [Compound 586]
18 | – | – | – | – | TAMRA EC1.5 [1, 7]: A (EC1.5<1 μM); Emax [1, 8]: ≥ 350%; Trp EC1.5 [2, 9]: B (EC1.5 1-25 μM); Emax [2, 10]: < 350% | Cc1nc(C(=O)Nc2cnn3ccc(-c4ccccc4C(F)(F)F)nc23)cs1 [Compound 527]
19 | – | – | – | – | TAMRA EC1.5 [1, 7]: B (EC1.5 1-25 μM); Emax [1, 8]: < 350%; Trp EC1.5 [2, 9]: C (EC1.5>25 μM); Emax [2, 10]: < 350% | Cc1cc(C)nc(NC(=O)c2cnc3ccc(N4CC[C@@H](N(C)C)C4)nn23)c1 [Compound 513]
20 | C (EC1.5>25 μM) | < 350% | C (EC1.5>25 μM) | < 350% | – | O=C(Nc1cccnc1N1CCOCC1)c1cnc2ccc(-c3ccccc3C(F)(F)F)nn12 [Compound 215]
21 | A (EC1.5<1 μM) | ≥ 350% | B (EC1.5 1-25 μM) | < 350% | – | Cc1cncc(NC(=O)c2cnn3ccc(-c4ccccc4C(F)(F)F)nc23)n1 [Compound 654]
22 | B (EC1.5 1-25 μM) | < 350% | A (EC1.5<1 μM) | ≥ 350% | – | Cc1cccnc1NC(=O)c1cnn2ccc(-c3ccccc3OC(F)(F)F)nc12 [Compound 701]
23 | B (EC1.5 1-25 μM) | < 350% | C (EC1.5>25 μM) | < 350% | – | Cc1cnc(C(=O)Nc2c(C)nc3ccc(-c4ccccc4Cl)nn23)s1 [Compound 354]
24 | – | – | – | – | TAMRA EC1.5 (μM) [1, 11]: A (EC1.5<1 μM); Emax [1, 12]: ≥ 350%; Trp EC1.5 (μM) [2, 13]: B (EC1.5 1-25 μM); Emax [2, 14]: < 350% | O=C(Nc1cccc(CN2CCOCC2)n1)c1cnc2ccc(-c3cccc(Cl)c3F)nn12 [Compound 140]
25 | C (EC1.5>25 μM) | < 350% | A (EC1.5<1 μM) | < 350% | – | COc1ccc(NC(=O)c2c(C)nc3ccc(-c4cccc(F)c4)nn23)nn1 [Compound 761]
26 | – | – | – | – | TAMRA EC1.5 [1, 7]: A (EC1.5<1 μM); Emax [1, 8]: ≥ 350%; Trp EC1.5 [2, 9]: A (EC1.5<1 μM); Emax [2, 10]: ≥ 350% | Cc1cc2ncc(NC(=O)c3cccc(OCC(O)CO)n3)n2nc1-c1ccccc1C(F)(F)F (stereo not drawn) [Compound 449]
27 | A (EC1.5<1 μM) | ≥ 350% | B (EC1.5 1-25 μM) | ≥ 350% | – | Cc1nc2ccc(-c3ccccc3C(F)(F)F)nn2c1NC(=O)c1cccc(N2CCC2)n1 [Compound 383]
